Measurements as given in patent US20140288040A1, “SUBSTITUTED BENZYLAMINE COMPOUNDS, THEIR USE IN MEDICINE, AND IN PARTICULAR THE TREATMENT OF HEPATITIS C VIRUS (HCV) INFECTION” (ASTEX THERAPEUTICS LIMITED, priority 2011, published 2014).
Structures can show the parent of a compound that is named as a salt.

Target: T1, HCV NS3 protease (full length NS34a) (Hepatitis C virus genotype 1b, UniProt P26663)
T1 construct: The protease activity of the full length NS34a was measured using a FRET-based assay; made in house
Assay: HCV NS3 protease assay (FRET, full length NS34a)
Assay type: biochemical
Settings: IC50 values of 10-150 μM against the protease activity of the full length NS34a, or at least 40% inhibition of protease activity at a concentration of 100 μM
Protocol: The HCV NS3 protease functions have been extensively studied and are considered as potential targets for antiviral therapy: see for example the many references listed in the introductory section of this application. Therefore, the activity of the compounds of the invention as anti-HCV agents was assessed using a full length HCV NS3 protease.
The protease activity of the full length NS34a was measured using a FRET-based assay utilizing a peptide substrate derived from the NS4AB cleavage site (Anaspec) and labelled at one end with a quencher (QXL520) and at the other with a fluorophore (5-FAMsp). NS34a (produced in-house by literature methods) was incubated with test compounds and peptide substrate in 50 mM Tris pH8, 20 mM DTT, 1% CHAPS, 10% glycerol and 5% DMSO. The reaction was followed by monitoring the change in fluorescence on a Molecular Devices Gemini plate reader for 30 minutes at room temperature. Initial rates were calculated from the progress curves using SoftMax Pro (Molecular Devices). IC50 values were then calculated from replicate curves using Prism GraphPad software.

T1 sequence (P26663 1658-1711): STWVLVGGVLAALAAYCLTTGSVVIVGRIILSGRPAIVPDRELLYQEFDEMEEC
T1 sequence (P26663 1027-1657): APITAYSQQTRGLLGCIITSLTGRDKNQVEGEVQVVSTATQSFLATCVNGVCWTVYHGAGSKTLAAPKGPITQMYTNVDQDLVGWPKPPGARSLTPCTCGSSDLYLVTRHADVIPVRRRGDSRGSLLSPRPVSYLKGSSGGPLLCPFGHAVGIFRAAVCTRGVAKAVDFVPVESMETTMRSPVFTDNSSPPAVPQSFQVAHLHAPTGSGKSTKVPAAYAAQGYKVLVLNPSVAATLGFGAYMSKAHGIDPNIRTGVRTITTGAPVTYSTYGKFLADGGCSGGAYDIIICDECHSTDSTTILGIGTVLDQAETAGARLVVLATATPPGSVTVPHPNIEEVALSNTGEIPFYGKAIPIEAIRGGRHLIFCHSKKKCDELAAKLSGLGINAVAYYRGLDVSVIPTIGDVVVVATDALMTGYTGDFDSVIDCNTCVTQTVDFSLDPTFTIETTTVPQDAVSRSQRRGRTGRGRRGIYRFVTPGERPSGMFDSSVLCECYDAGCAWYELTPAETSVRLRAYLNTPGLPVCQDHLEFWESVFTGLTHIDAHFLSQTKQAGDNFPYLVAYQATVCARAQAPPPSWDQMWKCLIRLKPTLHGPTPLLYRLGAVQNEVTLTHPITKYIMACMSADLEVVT

IC50 [µM]	Compound
10 to 150	CC[C@@H](N[C@H](C)CC(N)=O)c1ccc(Cl)c(Oc2ccc(N)c(OC)c2)c1F [Example 254]
10 to 150	CC[C@@H](N[C@H](C)CC(=O)NC)c1ccc(Cl)c(Oc2ccccc2)c1F [Example 131B, (R)-3-[(R)-1-(4-Chloro-2-fluoro-3-phenoxy-phenyl)-propylamino]-N-methyl-butyramide. hydrochloride]
10 to 150	C[C@H](CC(N)=O)N[C@H](CC1CCOCC1)c1ccc(Cl)c(Oc2ccccc2)c1F [Example 257]
10 to 150	CC[C@@H](N)c1ccc(Cl)c(Oc2ccc(NC(C)=O)nc2)c1F [Example 355]
10 to 150	NC(CO)c1ccc(F)c(Oc2ccccc2)c1F (stereo not shown) [Example 46, 2-Amino-2-(2,4-difluoro-3-phenoxy-phenyl)-ethanol. hydrochloride]
10 to 150	CC[C@@H](N[C@H](C)CC(N)=O)c1ccc(Cl)c(Oc2cccc(CO)c2)c1F [Example 117]
10 to 150	CC[C@@H](N[C@@H](CC(N)=O)C(C)C)c1ccc(Cl)c(Oc2ccccc2)c1F [Example 142]
10 to 150	CC[C@@H](N[C@H](C)CC(=O)NCC(N)=O)c1ccc(Cl)c(Oc2ccccc2)c1F [Example 177]
10 to 150	N[C@H](CC1CCOCC1)c1ccc(Cl)c(Oc2ccccc2)c1F [Example 276A, (R)-1-(4-Chloro-2-fluoro-3-phenoxy-phenyl)-2-(tetrahydro-pyran-4-yl)-ethylamine. hydrochloride]
10 to 150	CC[C@@H](N[C@@H](C)CC(N)=O)c1ccc(Cl)c(Oc2ccc(F)cc2N)c1F [Example 334]
10 to 150	CN[C@H](CCOC)c1ccc(Cl)c(Oc2ccccc2)c1F [Example 359]
10 to 150	C[C@H](CC(N)=O)N[C@@H](CC1CCNCC1)c1ccc(F)c(Oc2ccccc2)c1F [Example 99]
10 to 150	CC[C@@H](N[C@@H](C)C(=O)N(C)C)c1ccc(Cl)c(Oc2ccccc2)c1F [Example 332]
10 to 150	CCc1ccc(C(N)CC2CCNCC2)c(F)c1Oc1ccccc1 (stereo not shown) [Example 105B, 1-(4-Ethyl-2-fluoro-3-phenoxy-phenyl)-2-piperidin-4-yl-ethylamine.dihydrochloride]
10 to 150	CC[C@@H](N[C@H](C)CC(=O)NC[C@@H](C)O)c1ccc(Cl)c(Oc2ccccc2)c1F [Example 268]
10 to 150	CC[C@@H](N)c1ccc(Cl)c(Oc2cccc(C(=O)NCCC#N)c2)c1F [Example 191]
10 to 150	CCC[C@@H](N[C@H](C)CC(N)=O)c1ccc(Cl)c(Oc2ccccc2)c1F [Example 126]
10 to 150	C[C@H](CC(N)=O)NCc1ccc(F)c(Oc2ccccc2)c1F [Example 327]
10 to 150	CC[C@@H](N[C@H](C)CC(N)=O)c1ccc(Cl)c(Oc2cccc(CNS(C)(=O)=O)c2)c1F [Example 217]
10 to 150	CC[C@@H](N)c1ccc(Cl)c(Oc2ccc(C(F)(F)F)cc2)c1F [Example 175]
10 to 150	CC[C@@H](N[C@H](C)CC(N)=O)c1ccc(F)c(Oc2ccccc2)c1F [Example 120]
10 to 150	CC[C@@H](N[C@H](C)CC(=O)NOC)c1ccc(Cl)c(Oc2ccccc2)c1F [Example 307]
10 to 150	C[C@@H](CC(N)=O)N[C@@H](c1ccc(Cl)c(Oc2ccccc2)c1F)C1CCOCC1 [Example 299]
10 to 150	CC[C@@H](N)c1ccc(Cl)c(Oc2ccc(CO)nc2)c1F [Example 231]
10 to 150	CC[C@@H](N[C@@H](C)CC(=O)N(C)OC)c1ccc(Cl)c(Oc2ccccc2)c1F [Example 161]
10 to 150	CC[C@@H](N[C@H](C)CC(N)=O)c1ccc(Cl)c(Oc2ccc(N)c(C(F)(F)F)c2)c1F [Example 259]
10 to 150	CCC(NCc1ncc[nH]1)c1ccc(F)c(Oc2ccccc2)c1F (stereo not shown) [Example 292]
10 to 150	CC[C@@H](N[C@H](C)CC(=O)NC(C)(C)CO)c1ccc(Cl)c(Oc2ccccc2)c1F [Example 269]

Compound	IC50 [µM]
C=CCN[C@@H](CC)c1ccc(F)c(Oc2ccccc2)c1F [Example 102, Allyl-[(S)-1-(2,4-difluoro-3-phenoxy-phenyl)-propyl]-amine.hydrochloride]	10 to 150

Same assay, conditions: protease activity of full length NS34a, FRET peptide substrate; read-out: Activity IC50

IC50 [µM]	Compound
2.1	CC[C@@H](N)c1ccc(Cl)c(Oc2ccc(C#N)c(F)c2)c1F [Example 166]
3.7	CC[C@@H](N)c1ccc(Cl)c(Oc2cccc(C(N)=O)c2)c1F [Example 172]
0.61	CC[C@@H](N)c1ccc(Cl)c(Oc2ccc(CC#N)cc2)c1F [Example 179]
0.32	C[C@@H](CC(=O)NCCN)N[C@@H](CC1CCOCC1)c1ccc(Cl)c(Oc2ccccc2)c1F [Example 352]
4.6	CC[C@@H](N[C@H](C)CC(N)=O)c1ccc(Cl)c(Oc2ccc(-c3cnco3)cc2)c1F [Example 220]
2.7	C[C@H](N)c1ccc(Cl)c(Oc2ccccc2)c1F [Example 342]
4.8	CC[C@@H](N)c1ccc(Cl)c(Oc2ccncc2)c1F [Example 169]
3.9	C[C@@H](CC(N)=O)NCc1ccc(F)c(Oc2ccccc2)c1F [Example 326]
1.8	CC[C@@H](N[C@H](C)CC(N)=O)c1ccc(Cl)c(Oc2ccc3c(c2)OCC3)c1F [Example 232]
0.42	CC[C@@H](N)c1ccc(Cl)c(Oc2ccc(C#N)cc2)c1F [Example 158]
3	CC[C@@H](N)c1ccc(Cl)c(Oc2cccc(F)c2)c1F [Example 149]
5	CCC(CC)[C@@H](N)c1ccc(Cl)c(Oc2ccccc2)c1F [Example 346]
10	C[C@H](CC(N)=O)N[C@H](c1ccc(Cl)c(Oc2ccccc2)c1F)C1CCOCC1 [Example 348]
2.1	CC[C@@H](N)c1ccc(Cl)c(Oc2cccc(CNS(C)(=O)=O)c2)c1F [Example 157]
6.2	CC[C@@H](N)c1ccc(Cl)c(Oc2ccc(N)cn2)c1F [Example 156, 6-[3-((R)-1-Amino-propyl)-6-chloro-2-fluoro-phenoxy]-pyridin-3-ylamine.dihydrochloride]
1.4	C[C@@H](CC(N)=O)NCc1ccc(Cl)c(Oc2ccccc2)c1F [Example 328]
2.4	CS(=O)(=O)Nc1cccc(Oc2c(F)ccc(CN[C@H]3CC[C@@H](N)CC3)c2F)c1 [Example 285]
3.1	CC[C@@H](N[C@H](C)CC(=O)NCCO)c1ccc(Cl)c(Oc2ccccc2)c1F [Example 146]
5.4	CC[C@@H](N[C@H](C)CC(N)=O)c1ccc(Cl)c(Oc2ccc([N+](=O)[O-])cc2)c1F [Example 202]

IC50 [µM]	Compound
1.3	CC[C@@H](N[C@H](C)c1c[nH]cn1)c1ccc(Cl)c(Oc2ccccc2)c1F [Example 130]
1.6	CC[C@@H](N[C@@H](C)CC(=O)NCCNC1CC1)c1ccc(Cl)c(Oc2ccccc2)c1F [Example 321]
3.7	CC[C@@H](N)c1ccc(Cl)c(Oc2ccnc(C)c2)c1F [Example 168]
1.6	CC[C@@H](N)c1ccc(Cl)c(Oc2ccc3c(c2)C(C)(C)CN3)c1F [Example 270]
3.5	CC[C@@H](N)c1ccc(Cl)c(Oc2cccc(CNC(C)=O)c2)c1F [Example 173]
1.8	Cc1cc(Oc2c(Cl)ccc([C@@H](N)C3CCOCC3)c2F)ccc1[N+](=O)[O-] [Example 345]
3.4	CC[C@@H](N[C@H](C)CC(=O)N[C@H](C)CO)c1ccc(Cl)c(Oc2ccccc2)c1F [Example 208]
1.7	C#Cc1ccc(Oc2c(Cl)ccc([C@@H](CC)N[C@H](C)CC(N)=O)c2F)cc1 [Example 229]
1.6	CC[C@@H](N)c1ccc(Cl)c(Oc2ccc(CNC(C)=O)cc2)c1F [Example 198]
0.96	CC[C@@H](N)c1ccc(Cl)c(Oc2ccc3c(c2)CCO3)c1F [Example 193]
6.4	CC[C@@H](N[C@H](C)CC(N)=O)c1ccc(Cl)c(Oc2ccc(-c3cnco3)c(C)c2)c1F [Example 318]
5.7	CC[C@@H](N)c1ccc(Cl)c(Oc2ccc(N(C)C)cc2)c1F [Example 182]
0.4	CC[C@H](Nc1ccncc1)c1ccc(F)c(Oc2ccccc2)c1F [Example 144, [(S)-1-(2,4-Difluoro-3-phenoxy-phenyl)-propyl]-pyridin-4-yl-amine. hydrochloride]
6.1	CC[C@@H](N)c1ccc(Cl)c(Oc2ccc(C(C)OC)cc2)c1F (stereo partly shown) [Example 184]
2.8	CC[C@H](N)c1ccc(Cl)c(Oc2cccc(C(=O)N(C)Cc3cn[nH]c3)c2)c1F [Example 141, 3-[3-((S)-1-Amino-propyl)-6-chloro-2-fluoro-phenoxy]-N-methyl-N-(1H-pyrazol-4-ylmethyl)-benzamide.hydrochloride]
1.6	CC[C@@H](N)c1ccc(Cl)c(Oc2ccc(-c3cnco3)c(C)c2)c1F [Example 228]
9.7	CC[C@H](CC(N)=O)N[C@H](CC)c1ccc(Cl)c(Oc2ccccc2)c1F [Example 135]
2.7	CC[C@@H](N)c1ccc(Cl)c(Oc2ccc(C(C)O)cc2)c1F (stereo partly shown) [Example 188]
0.52	CC[C@H](N)c1ccc(Cl)c(Oc2cccc(C(C)O)c2)c1F (stereo partly drawn) [Example 132B, 1-{3-[3-((S)-1-Amino-propyl)-6-chloro-2-fluoro-phenoxy]-phenyl}-ethanol.hydrochloride]
